In patent EP4603105A1, “PHARMACEUTICAL COMPOSITION CONTAINING CYCLIC COMPOUND HAVING SELECTIVE KRAS INHIBITORY EFFECT AGAINST HRAS AND NRAS” (CHUGAI SEIYAKU KABUSHIKI KAISHA, priority 2022, dated 2024):
*1 amine or outer side, *2 acyl side, *3 side chain or, on linkers, in order; H or OH if unused. Where a SMILES comes first, the peptide text is derived from it. Bridges are numbered along the chain shown (N, C = ends). [ ]: non-standard residue; d: D form. The star is where a group is joined. hPhe(3-Cl-4-CF3) = N[C@@H](CCc1ccc(C(F)(F)F)c(Cl)c1)C(=O)O; NPrPhe(4-CF3) = CCCN[C@@H](Cc1ccc(C(F)(F)F)cc1)C(=O)O; X37 = Cc1ccc(C[C@@H](C(=O)[*:2])N(CCC(C)C)[*:1])cc1; X52 = C#CCN([C@@H](Cc1ccc(C)cc1)C(=O)[*:2])[*:1]; NMeGly(cPent) = CN[C@H](C(=O)O)C1CCCC1; Aze(3S-Me) = C[C@H]1CN[C@@H]1C(=O)O; Hyp = O=C(O)[C@@H]1C[C@@H](O)CN1; NMeD = CN[C@@H](CC(=O)O)C(=O)O; NMeL = CN[C@@H](CC(C)C)C(=O)O; Morpholide = C1CN(*)CCO1; NMeA = CN[C@@H](C)C(=O)O; Ac5c = NC1(C(=O)O)CCCC1; Aze = O=C(O)[C@@H]1CCN1; Ac4c = NC1(C(=O)O)CCC1; Ac3c = NC1(C(=O)O)CC1; Sar = CNCC(=O)O

tested on: human lung cancer strain NCI-H441; format: cell-based
Experimental: A test compound was dispensed into a U-bottom 384-well plate as 40 nL serially diluted dimethyl sulfoxide solutions using a liquid handler Echo (LABCYTE). […] This cell suspension was dispensed in an amount of 40 µL per well into a plate containing the test compound, and cultured at 37°C in a 5% carbon dioxide gas incubator. Four days later, 20 µL of CellTiter-Glo (registered trademark) (Promega) was added to each well and […] was measured. […]

With `CCCN1C(=O)[C@@H]2CCN2C(=O)C2(CC2)NC(=O)[C@H]([C@@H](C)CC)NC(=O)[C@H](CC(C)C)N(C)C(=O)C[C@@H](C(=O)N2CCOCC2)N(C)C(=O)[C@H](C2CCCC2)N(C)C(=O)C2(CCCC2)NC(=O)[C@@H]2CCCN2C(=O)[C@H](CCc2ccc(C(F)(F)F)c(Cl)c2)NC(=O)CN(C)C(=O)[C@@H]1Cc1ccc(C(F)(F)F)cc1` [PP0276] ([NMeL]I[Ac3c][Aze][NPrPhe(4-CF3)][Sar][hPhe(3-Cl-4-CF3)]P[Ac5c][NMeGly(cPent)][NMeD]-Morpholide; lactam N-11) as the compound, how does the IC50 read?
Its IC50 is 752 nM.

`CCO[C@@H]1C[C@H]2C(=O)NC3(CC(C)(C)C3)C(=O)N(C)[C@@H](C3CCCC3)C(=O)N(C)[C@H](C(=O)N(C)CC)CC(=O)N(C)[C@@H]([C@@H](C)OC)C(=O)N[C@@H]([C@@H](C)CC)C(=O)N(C)CC(=O)N(C)[C@H]3C/C=C\CCN(C3=O)[C@@H](Cc3ccc(C(F)(F)F)cc3)C(=O)N(C)CC(=O)N[C@@H](CCc3ccc(C(F)(F)F)c(Cl)c3)C(=O)N2C1` [PP3162] was tested. Which IC50 did it give?
The IC50 was 9.6 nM.

With `C#CCN1C(=O)[C@@H]2CCN2C(=O)[C@H](C)N(C)C(=O)[C@H]([C@@H](C)CC)NC(=O)[C@H](CC(C)C)N(C)C(=O)C[C@@H](C(=O)N2CCOCC2)N(C)C(=O)[C@H](C2CCCC2)N(C)C(=O)C2(CCCC2)NC(=O)[C@@H]2CCCN2C(=O)[C@H](CCc2ccc(C(F)(F)F)c(Cl)c2)NC(=O)CN(C)C(=O)[C@@H]1Cc1ccc(C)cc1` [PP0090] ([NMeL]I[NMeA][Aze][X52][Sar][hPhe(3-Cl-4-CF3)]P[Ac5c][NMeGly(cPent)][NMeD]-Morpholide; lactam N-11) as the compound, how does the IC50 read?
The IC50 was 1.9 nM.

`CCO[C@@H]1C[C@H]2C(=O)NC3(CCC3)C(=O)N(C)[C@@H](C3CCCC3)C(=O)N(C)[C@H](C(=O)N(C)CC)CC(=O)N(C)[C@@H](C(C)C)C(=O)N[C@@H]([C@@H](C)CC)C(=O)N(C)CC(=O)N(C)[C@H]3C/C=C\CCN(C3=O)[C@@H](Cc3ccc(C(F)(F)F)cc3)C(=O)N(C)CC(=O)N[C@@H](CCc3ccc(C(F)(F)F)c(OC)c3)C(=O)N2C1` [PP2019] was tested. Which IC50 did it give?
Its IC50 is 4.5 nM.

With `CCCN1C(=O)[C@@H]2CCN2C(=O)[C@@H]2[C@@H](C)CN2C(=O)[C@H]([C@@H](C)CC)NC(=O)[C@H](CC(C)C)N(C)C(=O)C[C@@H](C(=O)N2CCOCC2)N(C)C(=O)[C@H](C2CCCC2)N(C)C(=O)C2(CCCC2)NC(=O)[C@@H]2CCCN2C(=O)[C@H](CCc2ccc(C(F)(F)F)c(Cl)c2)NC(=O)CN(C)C(=O)[C@@H]1Cc1ccc(C(F)(F)F)cc1` [PP0279] ([NMeL]I[Aze(3S-Me)][Aze][NPrPhe(4-CF3)][Sar][hPhe(3-Cl-4-CF3)]P[Ac5c][NMeGly(cPent)][NMeD]-Morpholide; lactam N-11) as the compound, how does the IC50 read?
The IC50 was 15 nM.

Which IC50 does the source give for `CC[C@H](C)[C@@H]1NC(=O)[C@H](CC(C)C)N(C)C(=O)C[C@@H](C(=O)N2CCOCC2)N(C)C(=O)[C@H](C2CCCC2)NC(=O)C2(CCCC2)NC(=O)[C@@H]2CCCN2C(=O)[C@H](CCc2cc(F)c(C(F)(F)F)c(F)c2)NC(=O)CN(C)C(=O)[C@H](Cc2ccc(C(F)(F)F)cc2)N2CCCCC[C@@H](C2=O)N(C)C(=O)CN(C)C1=O` [PP0478] here?
Its IC50 is 2750 nM.

With `CC[C@H](C)[C@@H]1NC(=O)[C@H](CC(C)C)N(C)C(=O)C[C@@H](C(=O)N2CCOCC2)N(C)C(=O)[C@H](C2CCCC2)N(C)C(=O)C2(CCCC2)NC(=O)[C@@H]2CCCN2C(=O)[C@H](CCc2ccc(C(F)(F)F)c(Cl)c2)NC(=O)CN(C)C(=O)[C@H](Cc2ccc(C)cc2)N(CCC(C)C)C(=O)CN(C)C(=O)CN(C)C1=O` [PP0098] ([NMeL]I[Sar][Sar][X37][Sar][hPhe(3-Cl-4-CF3)]P[Ac5c][NMeGly(cPent)][NMeD]-Morpholide; lactam N-11) as the compound, how does the IC50 read?
The IC50 was 9.4 nM.

For `CCCN1C(=O)[C@@H]2CCN2C(=O)[C@H](C)N(C)C(=O)[C@H]([C@@H](C)CC)NC(=O)[C@H](CC(C)C)N(C)C(=O)C[C@@H](C(=O)N(C)C)N(C)C(=O)[C@H](C2CCCC2)N(C)C(=O)C2(CCC2)NC(=O)[C@@H]2C[C@@H](OCC)CN2C(=O)[C@H](CCc2ccc(C(F)(F)F)c(Cl)c2)NC(=O)CN(C)C(=O)[C@@H]1Cc1ccc(C(F)(F)F)cc1` [PP0439] ([NMeL]I[NMeA][Aze][NPrPhe(4-CF3)][Sar][hPhe(3-Cl-4-CF3)][Hyp](Et)[Ac4c][NMeGly(cPent)][NMeD]-NMe2; lactam N-11), which IC50 is on record?
Its IC50 is 0.7 nM.

How did the IC50 turn out when `CC[C@H](C)[C@@H]1NC(=O)[C@H](CC(F)F)N(C)C(=O)C[C@@H](C(=O)N(C)C)N(C)C(=O)[C@H](C2CCCC2)N(C)C(=O)C2(CC(C)(C)C2)NC(=O)[C@@H]2C[C@H](C)CN2C(=O)[C@H](CCc2ccc(C(F)(F)F)c(OC)c2)NC(=O)CN(C)C(=O)[C@H](Cc2ccc(C)cc2)N2CC/C=C\C[C@@H](C2=O)N(C)C(=O)CN(C)C1=O` [PP1875] was run?
Its IC50 is 7.7 nM.
